According to patent publication US20250368666A1, “INDAZOLE COMPOUNDS” (TYRA BIOSCIENCES, INC., priority 2022, published 2025):

Assays:
Test in all cases: Kinase binding assay (kinase-tagged T7 phage, affinity beads, qPCR), Kd
[1] = biological target: T1, FGFR1 (Homo sapiens, UniProt P11362); conditions: read-out: FGFR1 (Kd nM)
T1 construct: made in house; host or cells: E. coli (BL21-derived), T7 phage
Procedure, shortened: (§1)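 Phage-tagged kinase capture on small-molecule affinity resin, compound competition, qPCR quantitation; Kd from Levenberg-Marquardt Hill fit.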

[2] = biological target: T2, FGFR2 (Homo sapiens, UniProt P21802); conditions: read-out: FGFR2 (Kd nM)
T2 construct: made in house; host or cells: E. coli (BL21-derived), T7 phage
Procedure, shortened: as §1

[3] = biological target: T3, FGFR3 (Homo sapiens, UniProt P22607); conditions: read-out: FGFR3 (Kd nM)
T3 construct: made in house; host or cells: E. coli (BL21-derived), T7 phage
Procedure, shortened: as §1

[4] = biological target: T4, FGFR3 (V555M) (Homo sapiens, UniProt P22607, V555M); conditions: V555M mutant; read-out: FGFR3 (V555M) (Kd nM)
T4 construct: made in house; host or cells: E. coli (BL21-derived), T7 phage
Procedure, shortened: as §1

[5] = biological target: T5, FGFR4 (Homo sapiens, UniProt P22455); conditions: read-out: FGFR4 (Kd nM)
T5 construct: made in house; host or cells: E. coli (BL21-derived), T7 phage
Procedure, shortened: as §1

T1 sequence (P11362 22-822): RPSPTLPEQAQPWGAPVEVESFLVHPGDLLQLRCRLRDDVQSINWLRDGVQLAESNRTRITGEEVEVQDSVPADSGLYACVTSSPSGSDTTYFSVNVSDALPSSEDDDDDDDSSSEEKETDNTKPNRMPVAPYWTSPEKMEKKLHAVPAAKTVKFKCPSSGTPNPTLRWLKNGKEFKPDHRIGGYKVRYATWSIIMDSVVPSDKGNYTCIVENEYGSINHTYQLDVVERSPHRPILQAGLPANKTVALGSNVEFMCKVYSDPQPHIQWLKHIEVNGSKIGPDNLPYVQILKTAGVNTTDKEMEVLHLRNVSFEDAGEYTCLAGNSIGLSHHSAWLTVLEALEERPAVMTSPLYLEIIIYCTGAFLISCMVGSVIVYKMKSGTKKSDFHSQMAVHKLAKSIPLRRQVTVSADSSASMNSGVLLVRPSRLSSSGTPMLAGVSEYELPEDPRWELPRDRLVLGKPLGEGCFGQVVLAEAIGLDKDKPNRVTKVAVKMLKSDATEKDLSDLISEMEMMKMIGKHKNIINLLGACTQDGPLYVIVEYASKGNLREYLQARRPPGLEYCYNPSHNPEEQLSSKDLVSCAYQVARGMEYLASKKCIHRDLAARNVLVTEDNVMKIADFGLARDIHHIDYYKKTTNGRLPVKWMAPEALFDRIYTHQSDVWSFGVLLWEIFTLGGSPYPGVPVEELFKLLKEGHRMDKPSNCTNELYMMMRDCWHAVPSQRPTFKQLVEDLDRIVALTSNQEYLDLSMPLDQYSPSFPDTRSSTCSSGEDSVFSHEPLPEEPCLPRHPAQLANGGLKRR
T4 sequence (P22607 23-806 V555M): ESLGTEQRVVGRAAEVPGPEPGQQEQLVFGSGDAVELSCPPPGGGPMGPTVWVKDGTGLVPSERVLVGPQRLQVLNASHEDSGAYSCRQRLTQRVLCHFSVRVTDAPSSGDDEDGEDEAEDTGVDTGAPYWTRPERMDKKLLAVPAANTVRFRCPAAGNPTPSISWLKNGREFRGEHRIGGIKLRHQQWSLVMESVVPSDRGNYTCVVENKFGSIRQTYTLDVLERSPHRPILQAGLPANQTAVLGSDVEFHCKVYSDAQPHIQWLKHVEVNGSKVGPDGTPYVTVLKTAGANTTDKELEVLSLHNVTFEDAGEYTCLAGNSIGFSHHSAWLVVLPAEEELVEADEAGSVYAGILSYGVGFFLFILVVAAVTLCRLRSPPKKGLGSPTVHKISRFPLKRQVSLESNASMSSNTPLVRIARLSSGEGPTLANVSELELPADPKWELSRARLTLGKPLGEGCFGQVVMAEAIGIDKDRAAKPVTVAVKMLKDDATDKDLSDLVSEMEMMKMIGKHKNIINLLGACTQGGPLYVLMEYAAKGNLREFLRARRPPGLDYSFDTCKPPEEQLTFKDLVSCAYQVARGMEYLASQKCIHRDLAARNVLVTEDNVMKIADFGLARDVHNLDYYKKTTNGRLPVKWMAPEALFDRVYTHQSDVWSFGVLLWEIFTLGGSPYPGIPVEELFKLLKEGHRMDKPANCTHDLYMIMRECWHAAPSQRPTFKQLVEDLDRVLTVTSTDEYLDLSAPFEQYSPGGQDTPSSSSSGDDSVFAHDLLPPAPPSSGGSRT
T3 sequence (P22607 23-806): as the sequence (P22607 23-806 V555M) above, with M533V counted along it
T5 sequence (P22455 22-802): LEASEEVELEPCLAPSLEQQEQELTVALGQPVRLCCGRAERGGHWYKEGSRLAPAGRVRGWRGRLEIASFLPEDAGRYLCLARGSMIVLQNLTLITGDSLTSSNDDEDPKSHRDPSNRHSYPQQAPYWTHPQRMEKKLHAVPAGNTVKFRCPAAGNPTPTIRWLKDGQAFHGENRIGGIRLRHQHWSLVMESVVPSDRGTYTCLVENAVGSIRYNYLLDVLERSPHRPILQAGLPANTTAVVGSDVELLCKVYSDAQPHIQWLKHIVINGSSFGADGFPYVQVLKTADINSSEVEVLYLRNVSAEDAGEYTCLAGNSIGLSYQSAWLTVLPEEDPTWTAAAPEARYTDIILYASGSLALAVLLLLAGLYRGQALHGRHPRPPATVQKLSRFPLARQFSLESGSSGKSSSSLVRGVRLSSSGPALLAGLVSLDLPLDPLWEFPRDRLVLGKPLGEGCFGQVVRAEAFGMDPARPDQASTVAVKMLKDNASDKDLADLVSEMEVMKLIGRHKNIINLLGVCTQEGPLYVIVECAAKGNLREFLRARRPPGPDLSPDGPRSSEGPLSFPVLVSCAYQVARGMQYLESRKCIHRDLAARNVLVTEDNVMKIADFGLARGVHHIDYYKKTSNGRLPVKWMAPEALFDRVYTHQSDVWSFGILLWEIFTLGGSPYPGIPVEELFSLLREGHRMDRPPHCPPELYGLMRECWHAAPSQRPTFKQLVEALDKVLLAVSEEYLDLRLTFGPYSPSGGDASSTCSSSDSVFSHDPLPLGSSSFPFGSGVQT
T2 sequence (P21802 22-821): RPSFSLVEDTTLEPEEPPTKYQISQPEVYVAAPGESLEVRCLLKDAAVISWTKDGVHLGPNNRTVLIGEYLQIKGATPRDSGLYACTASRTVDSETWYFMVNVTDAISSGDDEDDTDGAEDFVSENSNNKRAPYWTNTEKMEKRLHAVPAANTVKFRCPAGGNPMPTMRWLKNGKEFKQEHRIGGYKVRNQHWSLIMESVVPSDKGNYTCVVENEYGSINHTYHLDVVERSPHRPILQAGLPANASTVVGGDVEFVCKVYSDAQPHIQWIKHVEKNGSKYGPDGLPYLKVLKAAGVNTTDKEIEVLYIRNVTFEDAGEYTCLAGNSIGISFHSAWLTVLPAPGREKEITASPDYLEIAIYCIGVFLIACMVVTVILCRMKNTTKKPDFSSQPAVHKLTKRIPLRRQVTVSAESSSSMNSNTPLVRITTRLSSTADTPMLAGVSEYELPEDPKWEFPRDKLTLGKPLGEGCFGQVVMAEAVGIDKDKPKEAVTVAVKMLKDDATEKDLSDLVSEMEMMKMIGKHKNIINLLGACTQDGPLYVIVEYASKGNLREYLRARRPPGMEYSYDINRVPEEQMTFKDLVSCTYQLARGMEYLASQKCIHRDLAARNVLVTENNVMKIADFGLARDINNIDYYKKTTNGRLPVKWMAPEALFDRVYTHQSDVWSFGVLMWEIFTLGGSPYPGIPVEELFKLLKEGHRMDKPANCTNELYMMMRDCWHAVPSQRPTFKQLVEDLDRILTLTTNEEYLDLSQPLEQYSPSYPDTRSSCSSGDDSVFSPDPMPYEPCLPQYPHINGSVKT

| Kd [1] | Kd [2] | Kd [3] | Kd [4] | Kd [5] | Compound |
| --- | --- | --- | --- | --- | --- |
| > 1000 nM | > 1000 nM | 50 to 300 nM | 50 to 300 nM | 1 to 50 nM | C[C@@H](Oc1cc2c(-c3cnc(N4CC5(CC5)C4)c(C#N)c3)n[nH]c2cc1F)c1c(Cl)cncc1Cl [Example 5, (R)-5-(5-(1-(3,5-Dichloropyridin-4-yl)ethoxy)-6-fluoro-1H-indazol-3-yl)-2-(5-azaspiro[2.3]hexan-5-yl)nicotinonitrile] |
| 1 to 50 nM | 1 to 50 nM | 1 to 50 nM | 1 to 50 nM | 1 to 50 nM | C[C@@H](Oc1ccc2[nH]nc(-c3ccc(N4CC(C)(N5CC(C)(O)C5)C4)nc3)c2c1)c1c(Cl)cncc1Cl [Example 157, 1-[1-[5-[5-[(1R)-1-(3,5-dichloro-4-pyridyl)ethoxy]-1H-indazol-3-yl]-2-pyridyl]-3-methyl-azetidin-3-yl]-3-methyl-azetidin-3-ol] |
| 1 to 50 nM | 1 to 50 nM | 1 to 50 nM | 1 to 50 nM | 1 to 50 nM | COCCN(C)C1(C)CN(c2ncc(-c3n[nH]c4ccc(O[C@H](C)c5c(Cl)cncc5Cl)cc34)cn2)C1 [Example 79, (R)-1-(5-(5-(1-(3,5-dichloropyridin-4-yl)ethoxy)-1H-indazol-3-yl)pyrimidin-2-yl)-N-(2-methoxyethyl)-N,3-dimethylazetidin-3-amine] |
| 1 to 50 nM | 50 to 300 nM | 1 to 50 nM | 1 to 50 nM | 1 to 50 nM | C[C@@H](Oc1ccc2[nH]nc(-c3cnc(N4CC(C)(NCC5(O)CC5)C4)c(C#N)c3)c2c1)c1c(Cl)cncc1Cl [Example 120, (R)-5-(5-(1-(3,5-dichloropyridin-4-yl)ethoxy)-1H-indazol-3-yl)-2-(3-(((1-hydroxycyclopropyl)meth-yl)amino)-3-methylazetidin-1-yl)nicotinonitrile] |
| > 1000 nM | > 1000 nM | > 1000 nM | > 1000 nM | 50 to 300 nM | C[C@@H](Oc1ccc2[nH]nc(-c3cnc(N4CC(C)(N5CCOCC5)C4)c(C#N)c3)c2c1F)c1c(Cl)cncc1Cl [Example 327, (R)-5-(5-(1-(3,5-dichloropyridin-4-yl)ethoxy)-4-fluoro-1H-indazol-3-yl)-2-(3-methyl-3-morpholinoazetidin-1-yl)nicotinonitrile] |
| 1 to 50 nM | 1 to 50 nM | 1 to 50 nM | 1 to 50 nM | 1 to 50 nM | COCCN(C)C1(C)CN(c2ncc(-c3n[nH]c4ccc(O[C@H](C)c5c(Cl)cncc5Cl)cc34)cc2F)C1 [Example 85, (R)-1-(5-(5-(1-(3,5-dichloropyridin-4-yl)ethoxy)-1H-indazol-3-yl)-3-fluoropyridin-2-yl)-N-(2-methoxyethyl)-N,3-dimethylazetidin-3-amine] |
| 300 to 1000 nM | 300 to 1000 nM | 50 to 300 nM | 1 to 50 nM | 300 to 1000 nM | C[C@@H](Oc1ccc2[nH]nc(-c3ccc(N4CC(C)(NCCO)C4)nc3)c2c1F)c1c(Cl)cncc1Cl [Example 192, (R)-2-((1-(5-(5-(1-(3,5-dichloro-pyridin-4-yl)ethoxy)-4-fluoro-1H-inda-zol-3-yl)pyridin-2-yl)-3-methylazetidin-3-yl)amino)ethanol] |
| 1 to 50 nM | 1 to 50 nM | 1 to 50 nM | 1 to 50 nM | 1 to 50 nM | C[C@@H](Oc1ccc2[nH]nc(-c3ccc(N4CC(C)(N5CCOCC5)C4)nc3)c2c1)c1c(Cl)cncc1Cl [Example 94, 4-[1-[5-[5-[(1R)-1-(3,5-dichloro-4-pyridyl)ethoxy]-1H-indazol-3-yl]-2-pyridyl]-3-methyl-azetidin-3-yl]morpholine] |
| 1 to 50 nM | 1 to 50 nM | 1 to 50 nM | 1 to 50 nM | 1 to 50 nM | C[C@@H](Oc1cc2c(-c3cnc(N4CC(C)(N(C)C)C4)c(F)c3)n[nH]c2cc1F)c1c(Cl)cncc1Cl [Example 130, 1-[5-[5-[(1R)-1-(3,5-dichloro-4-pyridyl)ethoxy]-6-fluoro-1H-indazol-3-yl]-3-fluoro-2-pyridyl]-N,N,3-trimethyl-azetidin-3-amine] |
| 300 to 1000 nM | > 1000 nM | 50 to 300 nM | 1 to 50 nM | 50 to 300 nM | C[C@@H](O)CNC1(C)CN(c2ncc(-c3n[nH]c4ccc(O[C@H](C)c5c(Cl)cncc5Cl)c(F)c34)cc2F)C1 [Example 169, (R)-1-((1-(5-(5-((R)-1-(3,5-dichloropyridin-4-yl)ethoxy)-4-fluoro-1H-indazol-3-yl)-3-fluoropyridin-2-yl)-3-methylazetidin-3-yl)amino)propan-2-ol] |
| 1 to 50 nM | 1 to 50 nM | 1 to 50 nM | 1 to 50 nM | 1 to 50 nM | C[C@@H](Oc1ccc2[nH]nc(-c3ccc(N4CC(C)(CNS(C)(=O)=O)C4)nc3)c2c1)c1c(Cl)cncc1Cl [Example 69, (R)-N-((1-(5-(5-(1-(3,5-dichloropyridin-4-yl)ethoxy)-1H-indazol-3-yl)pyridin-2-yl)-3-methylazetidin-3-yl)methyl)methane-sulfonamide] |
| 1 to 50 nM | 1 to 50 nM | 1 to 50 nM | 1 to 50 nM | 1 to 50 nM | COc1cc2[nH]nc(-c3cnc(N4CC(C)(CS(C)(=O)=O)C4)c(F)c3)c2cc1O[C@H](C)c1c(Cl)cncc1Cl [Example 194, (R)-5-(1-(3,5-dichloropyridin-4-yl)ethoxy)-3-(5-fluoro-6-(3-methyl-3-((methyl-sulfonyl)meth-yl)azetidin-1-yl)pyridin-3-yl)-6-methoxy-1H-indazole] |
| 300 to 1000 nM | 300 to 1000 nM | 50 to 300 nM | 1 to 50 nM | 300 to 1000 nM | C[C@@H](Oc1ccc2[nH]nc(-c3ccc(N4CC(C)(CN5CCCC5)C4)nc3)c2c1F)c1c(Cl)cncc1Cl [Example 191, (R)-5-(1-(3,5-dichloropyridin-4-yl)ethoxy)-4-fluoro-3-(6-(3-methyl-3-(pyrrolidin-1-ylmethyl)azetidin-1-yl)pyridin-3-yl)-1H-indazole] |
| > 1000 nM | > 1000 nM | 50 to 300 nM | 50 to 300 nM | 300 to 1000 nM | C[C@H](Oc1ccc2[nH]nc(-c3cnc(N4C[C@H](CS(C)(=O)=O)[C@H]4C)c(F)c3)c2c1)c1c(Cl)cncc1Cl [Example 208, 5-((S)-1-(3,5-dichloropyridin-4-yl)ethoxy)-3-(5-fluoro-6-((2R,3S)-2-methyl-3-((meth-ylsulfonyl)meth-yl)azetidin-1-yl)pyridin-3-yl)-1H-indazole] |
| 300 to 1000 nM | 300 to 1000 nM | 50 to 300 nM | 1 to 50 nM | 300 to 1000 nM | CC(C)NC1(C)CN(c2ccc(-c3n[nH]c4ccc(O[C@H](C)c5c(Cl)cncc5Cl)c(F)c34)cn2)C1 [Example 173, (R)-1-(5-(5-(1-(3,5-dichloropyridin-4-yl)ethoxy)-4-fluoro-1H-indazol-3-yl)pyridin-2-yl)-N-isopropyl-3-methylazetidin-3-amine] |
| 300 to 1000 nM | > 1000 nM | 50 to 300 nM | 1 to 50 nM | 50 to 300 nM | CNC1(C)CN(c2ncc(-c3n[nH]c4ccc(O[C@H](C)c5c(Cl)cncc5Cl)c(F)c34)cc2F)C1 [Example 197, (R)-1-(5-(5-(1-(3,5-dichloropyridin-4-yl)ethoxy)-4-fluoro-1H-indazol-3-yl)-3-fluoropyridin-2-yl)-N,3-dimethylazetidin-3-amine] |
